PubChem BioAssay AID256 (DTP/NCI, 2004)
“And” between values parts separate entries of the source, which are not always exact repeats. Equal values may be shown once. Toxic doses and inconclusive results are not listed. Rule for the calls: active = survival T/C of 150% or more; inactive = T/C below 125% in these data.

Test system: CD2F1 mice, L1210 leukemia ip, survival T/C
Assay: NCI In Vivo Anticancer Drug Screen. Data for tumor model L1210 Leukemia (intraperitoneal) in CD2F1 (CDF1) mice
Settings: higher = longer survival
Outline: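 Activity against a transplanted murine tumor was judged by comparing the compound group with a vehicle group. The outcome in the treated animals was divided by that in the controls.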

[1] = endpoint: mean survival time, dose: 100.0 mg/kg/injection, schedule: Q04DX003 (ip), vehicle: saline with Tween-80
[2] = endpoint: mean survival time, dose: 200.0 mg/kg/injection, schedule: Q04DX003 (ip), vehicle: saline with Tween-80
[3] = endpoint: mean survival time, dose: 400.0 mg/kg/injection, schedule: Q04DX003 (ip), vehicle: saline with Tween-80
[4] = endpoint: mean survival time, dose: 50.0 mg/kg/injection, schedule: Q01DX009 (ip), vehicle: saline with Tween-80
[5] = endpoint: mean survival time, dose: 100.0 mg/kg/injection, schedule: Q01DX009 (ip), vehicle: saline with Tween-80
[6] = endpoint: mean survival time, dose: 200.0 mg/kg/injection, schedule: Q01DX009 (ip), vehicle: saline with Tween-80
[7] = endpoint: mean survival time, dose: 100.0 mg/kg/injection, schedule: Q01DX001 (ip), vehicle: saline with Tween-80
[8] = endpoint: mean survival time, dose: 200.0 mg/kg/injection, schedule: Q01DX001 (ip), vehicle: saline with Tween-80
[9] = endpoint: mean survival time, dose: 400.0 mg/kg/injection, schedule: Q01DX001 (ip), vehicle: saline with Tween-80
[10] = endpoint: mean survival time, dose: 400.0 mg/kg/injection, schedule: Q01DX009 (ip), vehicle: saline with Tween-80
[11] = endpoint: mean survival time, dose: 100.0 mg/kg/injection, schedule: Q04DX002 (ip), vehicle: saline
[12] = endpoint: mean survival time, dose: 200.0 mg/kg/injection, schedule: Q04DX002 (ip), vehicle: saline

Measured: T/C

O=C(Nc1cccc2ccccc12)SCc1ccccc1
inactive: endpoint: mean survival time, dose: 50.0 mg/kg/injection, schedule: Q04DX002 (ip), vehicle: Klucel (hydroxypropylcellulose) (HPC) 88 % of control | endpoint: mean survival time, dose: 100.0 mg/kg/injection, schedule: Q04DX002 (ip), vehicle: Klucel (hydroxypropylcellulose) (HPC) 106 % of control | endpoint: mean survival time, dose: 200.0 mg/kg/injection, schedule: Q04DX002 (ip), vehicle: Klucel (hydroxypropylcellulose) (HPC) 95 % of control

C=C1C(=O)OC2CC/C=C\CCC12 (stereo not given)
inactive: endpoint: mean survival time, dose: 50.0 mg/kg/injection, schedule: Q01DX009 (ip), vehicle: saline 105 % of control | endpoint: mean survival time, dose: 100.0 mg/kg/injection, schedule: Q01DX009 (ip), vehicle: saline 97 % of control | endpoint: mean survival time, dose: 200.0 mg/kg/injection, schedule: Q01DX009 (ip), vehicle: saline 102 % of control

COc1ccc2occc2c1
inactive: [1] 94 % of control | [2] 94 % of control | [3] 91 % of control

O=C(NCc1ccccc1)C(Cc1ccccc1)(Cc1ccccc1)C(=O)NCc1ccccc1
inactive: [4] 102 % of control | [5] 97 % of control | [6] 93 % of control

CC1=CC=CC(C)(C(Cl)Cl)C1=O (stereo not given)
inactive: [4] 97 % of control | [5] 89 % of control | [1] 96 % of control | [2] 103 % of control | endpoint: mean survival time, dose: 1200.0 mg/kg/injection, schedule: Q01DX009 (ip), vehicle: saline with Tween-80 93 % of control

O/N=C1\CCCCC1C(O)(/C(=N/O)c1ccccc1)c1ccccc1 (stereo not given)
inactive: [7] 96 % of control | [8] 86 % of control | [9] 91 % of control

CC(C)CCNc1ncnc2[nH]ncc12
inactive: endpoint: mean survival time, dose: 12.5 mg/kg/injection, schedule: Q04DX003 (ip), vehicle: Klucel (hydroxypropylcellulose) (HPC) 106 % of control | endpoint: mean survival time, dose: 25.0 mg/kg/injection, schedule: Q04DX003 (ip), vehicle: Klucel (hydroxypropylcellulose) (HPC) 106 % of control | endpoint: mean survival time, dose: 50.0 mg/kg/injection, schedule: Q04DX003 (ip), vehicle: Klucel (hydroxypropylcellulose) (HPC) 100 % of control

Cc1cc(C)c(S(=O)(=O)F)cc1C(=O)O
inactive: [7] 101 % of control | [5] 96 % of control and 100 % of control | endpoint: mean survival time, dose: 100.0 mg/kg/injection, schedule: Q04DX002 (ip), vehicle: saline with Tween-80 92 % of control and 104 % of control | [1] 107 % of control | [8] 95 % of control | [6] 93 % of control and 94 % of control | endpoint: mean survival time, dose: 200.0 mg/kg/injection, schedule: Q04DX002 (ip), vehicle: saline with Tween-80 96 % of control and 104 % of control | [2] 102 % of control | [10] 96 % of control | endpoint: mean survival time, dose: 400.0 mg/kg/injection, schedule: Q04DX002 (ip), vehicle: saline with Tween-80 94 % of control and 102 % of control | [3] 100 % of control

C/C=C/CC(C/C=C/C)C1CC[N-]CC1.C/C=C/CC(C/C=C/C)C1CC[N-]CC1.[Cl][Pt+2]([Cl])([Cl])[Cl]
inactive: endpoint: mean survival time, dose: 12.5 mg/kg/injection, schedule: Q01DX009 (ip), vehicle: other 93 % of control | endpoint: mean survival time, dose: 100.0 mg/kg/injection, schedule: Q01DX009 (ip), vehicle: other 88 % of control

O=C(O)c1ccc([N+](=O)[O-])cc1.[Ag]
inactive: endpoint: mean survival time, dose: 3.13 mg/kg/injection, schedule: Q01DX009 (ip), vehicle: saline with Tween-80 102 % of control | endpoint: mean survival time, dose: 6.25 mg/kg/injection, schedule: Q01DX009 (ip), vehicle: saline with Tween-80 102 % of control | endpoint: mean survival time, dose: 6.25 mg/kg/injection, schedule: Q04DX003 (ip), vehicle: saline with Tween-80 96 % of control | endpoint: mean survival time, dose: 12.5 mg/kg/injection, schedule: Q01DX009 (ip), vehicle: saline with Tween-80 98 % of control | endpoint: mean survival time, dose: 12.5 mg/kg/injection, schedule: Q04DX003 (ip), vehicle: saline with Tween-80 96 % of control

CCOC(OCC)/C(C)=N/[N+](C)(C)C
inactive: endpoint: mean survival time, dose: 75.0 mg/kg/injection, schedule: Q01DX001 (ip), vehicle: saline 107 % of control | endpoint: mean survival time, dose: 150.0 mg/kg/injection, schedule: Q01DX001 (ip), vehicle: saline 98 % of control

CC1(C)SSC(C)(C)SS1
inactive: [1] 106 % of control | [2] 97 % of control | [3] 103 % of control

O=[N+]([O-])c1ccc(CS(=O)(=O)O)cc1
inactive: [11] 104 % of control | [12] 96 % of control | endpoint: mean survival time, dose: 400.0 mg/kg/injection, schedule: Q04DX002 (ip), vehicle: saline 96 % of control

N#C/C(=C\C1CCC(Cl)C(Cl)C1)C1CCC([N+](=O)[O-])CC1 (stereo not given)
inactive: endpoint: mean survival time, dose: 25.0 mg/kg/injection, schedule: Q04DX002 (ip), vehicle: saline with Tween-80 94 % of control | endpoint: mean survival time, dose: 50.0 mg/kg/injection, schedule: Q04DX002 (ip), vehicle: saline with Tween-80 88 % of control

CC1=CC(C)(N=[N+]=[N-])CC(C)(C)C1 (stereo not given)
inactive: endpoint: mean survival time, dose: 37.5 mg/kg/injection, schedule: Q01DX009 (ip), vehicle: saline 97 % of control | endpoint: mean survival time, dose: 75.0 mg/kg/injection, schedule: Q01DX009 (ip), vehicle: saline 97 % of control

CCC(=O)Sc1ccccc1C(=O)Nc1ccc(Cl)cc1
inactive: endpoint: median survival time, dose: 25.0 mg/kg/injection, schedule: Q01DX009 (ip), vehicle: saline with Tween-80 112 % of control | endpoint: median survival time, dose: 50.0 mg/kg/injection, schedule: Q01DX009 (ip), vehicle: saline with Tween-80 111 % of control | endpoint: median survival time, dose: 100.0 mg/kg/injection, schedule: Q01DX009 (ip), vehicle: saline with Tween-80 107 % of control | endpoint: median survival time, dose: 200.0 mg/kg/injection, schedule: Q01DX009 (ip), vehicle: saline with Tween-80 112 % of control | endpoint: median survival time, dose: 400.0 mg/kg/injection, schedule: Q01DX009 (ip), vehicle: saline with Tween-80 86 % of control

O=C(Nc1ccc2cc(S(=O)(=O)O)ccc2c1)c1ccc(N=Nc2c(S(=O)(=O)O)cc3cc(S(=O)(=O)O)cc(NC(=O)c4ccccc4)c3c2O)cc1
inactive: [4] 96 % of control | [5] 101 % of control

[Cl][Pt+2][Cl].[NH-]C1CC1.[NH2-]
inactive: endpoint: mean survival time, dose: 0.39 mg/kg/injection, schedule: Q04DX003 (ip), vehicle: saline 101 % of control | endpoint: mean survival time, dose: 0.78 mg/kg/injection, schedule: Q04DX003 (ip), vehicle: saline 103 % of control and 104 % of control | endpoint: mean survival time, dose: 1.56 mg/kg/injection, schedule: Q04DX003 (ip), vehicle: saline 121 % of control and 108 % of control | endpoint: mean survival time, dose: 3.12 mg/kg/injection, schedule: Q04DX003 (ip), vehicle: saline with Tween-80 124 % of control

[O-][n+]1onc2ccc(Cl)cc21
inactive: endpoint: mean survival time, dose: 100.0 mg/kg/injection, schedule: Q04DX003 (ip), vehicle: Klucel (hydroxypropylcellulose) (HPC) 102 % of control

CCC(=O)c1cccc([N+](=O)[O-])c1
inactive: [7] 100 % of control | [5] 96 % of control | [1] 102 % of control | [8] 104 % of control | [6] 97 % of control | [2] 102 % of control | [9] 93 % of control | [10] 97 % of control | [3] 98 % of control

NC(N)=N/N=C/c1ccc(Cl)cc1
inactive: endpoint: mean survival time, dose: 20.0 mg/kg/injection, schedule: Q01DX009 (ip), vehicle: Klucel (hydroxypropylcellulose) (HPC) 100 % of control | endpoint: mean survival time, dose: 40.0 mg/kg/injection, schedule: Q01DX009 (ip), vehicle: Klucel (hydroxypropylcellulose) (HPC) 96 % of control

Nc1nc(N)c(N)c(NC(c2ccccc2)c2ccccc2)n1
inactive: endpoint: mean survival time, dose: 75.0 mg/kg/injection, schedule: Q01DX001 (ip), vehicle: other 100 % of control

C#CCOC1CCCCC1O (stereo not given)
inactive: endpoint: mean survival time, dose: 100.0 mg/kg/injection, schedule: Q04DX003 (ip), vehicle: acetone 101 % of control

O=C(Cl)OC1CS(=O)(=O)CC1O (stereo not given)
inactive: [1] 98 % of control | [2] 98 % of control | [3] 101 % of control

OC(O)(C(F)(F)F)C(F)(F)F
inactive: endpoint: mean survival time, dose: 50.0 mg/kg/injection, schedule: Q01DX005 (ip), vehicle: saline 103 % of control | endpoint: mean survival time, dose: 100.0 mg/kg/injection, schedule: Q01DX005 (ip), vehicle: saline 91 % of control | [11] 103 % of control | [12] 109 % of control
